Laboratory results taken from patent publication US20210023111A1, “Novel Form of Invermectin and a Process for Making it” (Hovione Scientia Limited, priority 2018, published 2021).

Legend:
[1] = Solid-state stability of the amorphous form on storage (XRPD); type: physicochemical
From the text: By stable we mean that the amorphous form is maintained after a certain period of time under certain environmental conditions. We have data confirming that the product maintains its amorphous form at room temperature for at least 3.5 months.
X-ray diffraction (XRPD) analysis was made with PANalytical Empyrean equipped with copper tube and PIXel1D-Medpix3 detector (Malvern Panalytical, UK).

[2] = Water solubility by HPLC, amorphous vs crystalline ivermectin; type: physicochemical; settings: for peak on the HPLC chromatogram (water solubility): LOD of the HPLC method
From the text: This confirms that the amorphous form is more water soluble than the known crystalline form.

Substance: ivermectin [amorphous ivermectin]
- amorphous character after storage (XRPD, FIG. 7) ([1]; 3 months in the freezer followed by 3.5 months at room temperature (25° C.)): amorphous character is maintained
- time for which the product maintains its amorphous form ([1]; room temperature): at least 3.5 months
- water solubility relative to the crystalline form [2]: higher than its corresponding crystalline form
- peak on the HPLC chromatogram (water solubility) ([2]; listed as amorphous form): small, but visible peak

Substance: ivermectin [known crystalline form, reference compound]
- peak on the HPLC chromatogram (water solubility) [2]: no visible peak
